What was measured:
[1] = molecular target: EP300 (Homo sapiens, UniProt Q09472); assay: Bromodomain Binding Assay; details: 10 μM Compound 074, read-out: Bromodomain Binding % of Control
[2] = molecular target: T1, TAF1 BD2 (Homo sapiens, UniProt P21675); assay: Bromodomain Binding Assay; details: 10 μM Compound 074, read-out: Bromodomain Binding % of Control
T1 construct: made in house; host or cells: T7 phage grown in E. coli host derived from BL21

[3] = molecular target: BRDT BD1 (Homo sapiens, UniProt Q58F21); assay: Bromodomain Binding Assay; details: 10 μM Compound 074, read-out: Bromodomain Binding % of Control
[4] = molecular target: T2, SMARCA2 (Homo sapiens, UniProt P51531); assay: Bromodomain Binding Assay; details: 10 μM Compound 074, read-out: Bromodomain Binding % of Control
T2 construct: made in house; host or cells: T7 phage grown in E. coli host derived from BL21
T2 sequence (P51531 1378-1506 limits assumed): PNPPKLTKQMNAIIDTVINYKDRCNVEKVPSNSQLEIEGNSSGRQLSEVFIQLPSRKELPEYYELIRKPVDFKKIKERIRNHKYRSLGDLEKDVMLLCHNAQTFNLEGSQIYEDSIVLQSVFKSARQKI

[5] = molecular target: BRD3 BD2 (Homo sapiens, UniProt Q15059); assay: Bromodomain Binding Assay; details: 10 μM Compound 074, read-out: Bromodomain Binding % of Control
Chain of BRD3 BD2 (Q15059 306-415 limits assumed): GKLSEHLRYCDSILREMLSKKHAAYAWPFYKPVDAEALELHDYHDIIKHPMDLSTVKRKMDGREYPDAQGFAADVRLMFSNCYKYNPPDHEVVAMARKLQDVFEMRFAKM

[6] = molecular target: BRD2 BD2 (Homo sapiens, UniProt P25440); assay: Bromodomain Binding Assay; details: 10 μM Compound 074, read-out: Bromodomain Binding % of Control
Chain of BRD2 BD2 (P25440 344-453 limits assumed): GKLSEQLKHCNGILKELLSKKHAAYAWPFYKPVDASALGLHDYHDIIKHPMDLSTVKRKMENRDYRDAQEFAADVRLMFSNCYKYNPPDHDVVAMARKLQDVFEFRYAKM

[7] = molecular target: BRD1 (Homo sapiens, UniProt O95696); assay: Bromodomain Binding Assay; details: 10 μM Compound 074, read-out: Bromodomain Binding % of Control
Chain of BRD1 (O95696 562-666 limits assumed): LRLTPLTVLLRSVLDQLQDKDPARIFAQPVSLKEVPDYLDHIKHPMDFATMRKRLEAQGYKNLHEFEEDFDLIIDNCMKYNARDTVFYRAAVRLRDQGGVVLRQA

[8] = molecular target: BAZ2B (Homo sapiens, UniProt Q9UIF8); assay: Bromodomain Binding Assay; details: 10 μM Compound 074, read-out: Bromodomain Binding % of Control
Chain of BAZ2B (Q9UIF8 2060-2164 limits assumed): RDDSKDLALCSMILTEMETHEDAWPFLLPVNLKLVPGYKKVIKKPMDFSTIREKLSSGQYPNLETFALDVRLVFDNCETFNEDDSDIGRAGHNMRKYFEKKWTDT

[9] = molecular target: ATAD2 (Homo sapiens, UniProt Q6PL18); assay: Bromodomain Binding Assay; details: 10 μM Compound 074, read-out: Bromodomain Binding % of Control
Chain of ATAD2 (Q6PL18 980-1092 limits assumed): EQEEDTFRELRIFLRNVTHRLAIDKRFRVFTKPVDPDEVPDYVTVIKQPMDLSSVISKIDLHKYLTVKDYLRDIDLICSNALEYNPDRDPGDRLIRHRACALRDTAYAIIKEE

[10] = molecular target: BPTF (Homo sapiens, UniProt Q12830); assay: Bromodomain Binding Assay; details: 10 μM Compound 074, read-out: Bromodomain Binding % of Control
[11] = molecular target: ATAD2B (Homo sapiens, UniProt Q9ULI0); assay: Bromodomain Binding Assay; details: 10 μM Compound 074, read-out: Bromodomain Binding % of Control
Chain of ATAD2B (Q9ULI0 951-1066 limits assumed): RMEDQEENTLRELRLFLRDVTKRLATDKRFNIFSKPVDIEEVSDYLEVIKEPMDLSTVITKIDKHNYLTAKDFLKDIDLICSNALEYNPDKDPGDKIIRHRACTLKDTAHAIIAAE

[12] = molecular target: T3, BRWD1 BD2 (Homo sapiens, UniProt Q9NSI6); assay: Bromodomain Binding Assay; details: 10 μM Compound 074, read-out: Bromodomain Binding % of Control
T3 construct: made in house; host or cells: T7 phage grown in E. coli host derived from BL21
T3 sequence (Q9NSI6 1313-1418 limits assumed): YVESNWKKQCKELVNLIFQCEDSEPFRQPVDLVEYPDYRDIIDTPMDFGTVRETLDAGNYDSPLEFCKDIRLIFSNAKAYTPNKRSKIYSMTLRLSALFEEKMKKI

[13] = molecular target: T4, SMARCA4 (Homo sapiens, UniProt P51532); assay: Bromodomain Binding Assay; details: 10 μM Compound 074, read-out: Bromodomain Binding % of Control
T4 construct: made in house; host or cells: T7 phage grown in E. coli host derived from BL21
T4 sequence (P51532 1453-1564 limits assumed): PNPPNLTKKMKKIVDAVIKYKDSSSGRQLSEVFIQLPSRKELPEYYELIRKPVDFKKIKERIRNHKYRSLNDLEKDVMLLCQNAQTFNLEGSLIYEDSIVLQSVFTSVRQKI

[14] = molecular target: BRD2 BD1 (Homo sapiens, UniProt P25440); assay: Bromodomain Binding Assay; details: 10 μM Compound 074, read-out: Bromodomain Binding % of Control
Chain of BRD2 BD1 (P25440 74-180 limits assumed): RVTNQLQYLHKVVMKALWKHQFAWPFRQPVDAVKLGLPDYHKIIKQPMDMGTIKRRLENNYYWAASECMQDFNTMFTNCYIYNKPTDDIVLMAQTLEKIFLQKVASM

[15] = molecular target: T5, KAT2B (Homo sapiens, UniProt Q92831); assay: Bromodomain Binding Assay; details: 10 μM Compound 074, read-out: Bromodomain Binding % of Control
T5 construct: made in house; host or cells: T7 phage grown in E. coli host derived from BL21
T5 sequence (Q92831 723-827 limits assumed): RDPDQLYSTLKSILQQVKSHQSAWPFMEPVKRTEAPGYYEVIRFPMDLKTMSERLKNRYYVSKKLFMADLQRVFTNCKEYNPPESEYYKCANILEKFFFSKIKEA

[16] = molecular target: BRD4 BD2 (Homo sapiens, UniProt O60885); assay: Bromodomain Binding Assay; details: 10 μM Compound 074, read-out: Bromodomain Binding % of Control
[17] = molecular target: BRPF3 (Homo sapiens, UniProt Q9ULD4); assay: Bromodomain Binding Assay; details: 10 μM Compound 074, read-out: Bromodomain Binding % of Control
Chain of BRPF3 (Q9ULD4 589-693 limits assumed): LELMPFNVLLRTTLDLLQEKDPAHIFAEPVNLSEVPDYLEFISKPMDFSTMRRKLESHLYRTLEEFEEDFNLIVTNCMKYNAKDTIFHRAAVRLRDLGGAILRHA

[18] = molecular target: T6, BRD4 (Homo sapiens, UniProt O60885); assay: BRD4 western blotting in MV4-11 cells; type: cell-based
T6 construct: endogenous in cells; host or cells: MV4-11
Protocol: Cells were then collected by centrifugation, washed one time with cold PBS, supernatants aspirated and cell pellets lysed with 4° C. RIPA lysis buffer containing a protease/phosphatase inhibitor cocktail. The total protein concentrations of cell lysates were determined by BCA Protein Assay kit. Samples were normalized for equivalent protein concentrations, 5× loading buffer added and heated to 100° C. for 10 min and cooled to room temperature. 20 μl of each sample/well was loaded on a SDS-PAGE gel and electrophoresed for 20 min at 80 V, then 120 V for 1.5 hr. Gels were then electroblotted to nitrocellulose membranes using a wet-transfer method at 250 mA for 2.5 hr. Membranes were incubated with blocking buffer for 1 hr and washed 3 times with TBST for 5 min. Then membranes were incubated with anti-BRD4 (Cell Signaling Technology, #13440) and anti-beta-Actin (Cell Signaling Technology, #3700) antibodies diluted in blocking buffer per the manufacturer's recommendation at 4° C. overnight. After washing 3 times, blots were incubated with the appropriate labeled secondary antibody for 1 hr at room temperature and washed again. Images were read on a LI-COR and the optical density values of bands determined by ImageJ software. Data was analyzed using GraphPad Prism 7.0.

[19] = molecular target: BRD7 (Homo sapiens, UniProt Q9NPI1); assay: Bromodomain Binding Assay; details: 10 μM Compound 074, read-out: Bromodomain Binding % of Control
Chain of BRD7 (Q9NPI1 131-235 limits assumed): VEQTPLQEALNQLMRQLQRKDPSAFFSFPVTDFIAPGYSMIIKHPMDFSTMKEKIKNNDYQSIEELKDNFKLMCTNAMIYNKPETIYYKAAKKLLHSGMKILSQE

[20] = molecular target: T7, TRIM24 (Homo sapiens, UniProt O15164); assay: Bromodomain Binding Assay; details: 10 μM Compound 074, read-out: Bromodomain Binding % of Control
T7 construct: made in house; host or cells: T7 phage grown in E. coli host derived from BL21
T7 sequence (O15164 899-1004 limits assumed): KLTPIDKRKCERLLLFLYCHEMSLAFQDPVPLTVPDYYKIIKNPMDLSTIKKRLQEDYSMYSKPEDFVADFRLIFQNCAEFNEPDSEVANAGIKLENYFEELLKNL

[21] = test system: MV4-11 acute myeloid leukemia xenograft; assay: MV4-11 AML xenograft model in mice; details: for tumor growth inhibition (FIG. 3a): after 3 weeks of dosing
Protocol: MV4-11 cells were plated in a 96-well tissue culture plate at a density of 4,500 cells/90 μL/well and incubated at 37° C./5% CO2 for 24 hr. Cells were then treated with compounds at various concentrations (a 10-point, 3-fold serial dilution series starting at 20 μM) with a final concentration of 0.5% DMSO/well and then incubated in 37° C./5% CO2 for 72 hr. 10 μL the cell proliferation reagent CCK-8 (WST-8) was added into each well and incubated at 37° C./5% CO2 for 3-4 hr and the absorbance at 450 nm measured with an En Vision Plate Reader.
MV4-11 acute myeloid leukemia and SU-DHL-4 diffuse large B-cell lymphoma (ATCC, #CRL-2957) cells were cultured in medium supplemented with 10% fetal bovine serum at 37° C./5% CO2. 5×10^6 MV-4-11 or 1×10^7 SU-DHL-4 cells were collected and re-suspended in 0.1 mL of serum-free media with Matrigel (1:1 v/v) per mouse for subcutaneous inoculation in isoflurane anesthetized male BALB/c nude or C.B-17 scid mice, respectively (treated in accordance with AAALAC animal welfare guidelines). When the average tumor volumes reached 100-200 mm^3, tumor volume outliers were removed and the remaining animals randomly divided into groups of 6-8 with similar average tumor volumes in each group. […] The appearance and behavior of each mouse was observed and recorded daily. Body weights and tumor volumes were measured and recorded every 2-4 days and the results were expressed as group means±SEM. Pairwise statistical comparisons between groups were performed by one-way ANOVA, and p<0.05 was considered statistically significant.

[22] = molecular target: BRPF1 (Homo sapiens, UniProt P55201); assay: Bromodomain Binding Assay; details: 10 μM Compound 074, read-out: Bromodomain Binding % of Control
Chain of BRPF1 (P55201 628-732 limits assumed): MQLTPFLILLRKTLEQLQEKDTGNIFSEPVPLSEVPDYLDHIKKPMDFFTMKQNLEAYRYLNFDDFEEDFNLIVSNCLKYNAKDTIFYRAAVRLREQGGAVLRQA

[23] = molecular target: CECR2 (Homo sapiens, UniProt Q9BXF3); assay: Bromodomain Binding Assay; details: 10 μM Compound 074, read-out: Bromodomain Binding % of Control
Chain of CECR2 (Q9BXF3 434-538 limits assumed): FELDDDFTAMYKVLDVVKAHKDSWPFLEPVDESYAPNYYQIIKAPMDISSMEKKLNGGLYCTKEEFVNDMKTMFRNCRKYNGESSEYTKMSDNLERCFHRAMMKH

T1 sequence (P21675 1519-1628 limits assumed): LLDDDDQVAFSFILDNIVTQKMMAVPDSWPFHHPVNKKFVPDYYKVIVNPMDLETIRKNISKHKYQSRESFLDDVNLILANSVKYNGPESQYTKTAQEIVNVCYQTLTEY
Chain of EP300 (Q09472 1049-1156 limits assumed): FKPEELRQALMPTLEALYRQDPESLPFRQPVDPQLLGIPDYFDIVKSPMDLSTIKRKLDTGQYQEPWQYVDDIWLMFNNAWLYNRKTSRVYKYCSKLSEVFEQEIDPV

## Cc1sc2c(c1C)C(c1ccc(Cl)cc1)=N[C@@H](CC(=O)N1CCC(CN3CCN(Cc4ccc(-n5c(O)nnc5-c5cc(C(C)C)c(O)cc5O)cc4)CC3)CC1)c1nnc(C)n1-2.Cl [Compound 74, (S)-2-(4-(4-chlorophenyl)-2,3,9-trimethyl-6H-thieno[3,2-f][1,2,4]triazolo[4,3-a][1,4]diazepin-6-yl)-1-(4-((4-(4-(3-(2,4-dihydroxy-5-isopropylphenyl)-5-hydroxy-4H-1,2,4-triazol-4-yl)benzyl)piperazin-1-yl)methyl)piperidin-1-yl)ethan-1-one hydrochloride]
[1]
  remaining activity at 10 µM: 11 to 75%
[2]
  remaining activity at 10 µM: > 75%
[3]
  remaining activity at 10 µM: < 10%
[4]
  remaining activity at 10 µM: > 75%
[5]
  remaining activity at 10 µM: < 10%
[6]
  remaining activity at 10 µM: < 10%
[7]
  remaining activity at 10 µM: > 75%
[8]
  remaining activity at 10 µM: > 75%
[9]
  remaining activity at 10 µM: > 75%
[10]
  remaining activity at 10 µM: > 75%
[11]
  remaining activity at 10 µM: > 75%
[12]
  remaining activity at 10 µM: > 75%
[13]
  remaining activity at 10 µM: > 75%
[14]
  remaining activity at 10 µM: < 10%
[15]
  remaining activity at 10 µM: > 75%
[16]
  remaining activity at 10 µM: < 10%
[17]
  remaining activity at 10 µM: > 75%
[18]; MV4-11 cells treated with both compound 074 and bortezomib
  BRD4 degradation by western blotting with proteasome inhibitor bortezomib (FIG. 2): BRD4 degradation was blocked
[18]; MV4-11 cells, 24 hr, 100 and 300 nM
  BRD4 degradation by western blotting (FIG. 1): BRD4 degradation was observed
[19]
  remaining activity at 10 µM: > 75%
[20]
  remaining activity at 10 µM: > 75%
[21]; 50 mg/kg intravenous 1×/week
  animals tumor free at the end of the study: 1 out of 6
  tumor growth inhibition (FIG. 3a): significant tumor growth inhibition
[21]; 100 mg/kg intravenous 1×/week
  animals tumor free at the end of the study: 4 out of 6
  tumor growth inhibition (FIG. 3a): significant tumor growth inhibition
[21]; any group, MV4-11 xenograft
  animal deaths and body weights (FIG. 3b): No animal deaths or significant effects on body weights were observed
[22]
  remaining activity at 10 µM: > 75%
[23]
  remaining activity at 10 µM: > 75%
